From patent US20240285705A1, “AQUEOUS EXTRACTION OF CANNABINOIDS” (Curaleaf, Inc., priority 2023, published 2024)

Assay: Solubilization of cannabinoids in NaOH and KOH solutions
Assay type: physicochemical
Procedure: Concentration Selection: NaOH and KOH solutions having concentrations ranging from 0M to 2M were prepared and tested for their ability to solubilize D9THCA and CBDA. […] All forms of cannabinoids were extracted using NaOH and KOH. It was also determined that neutral cannabinoids were removed from the plant to a much less extent during base extraction.

Row | SMILES | Degradation by strong base (NaOH/KOH solution above 0.3M) | Solubility (NaOH and KOH solutions, concentrations ranging from 0M to 2M)
1 | CCCCCc1cc2c(c(O)c1C(=O)O)[C@@H]1C=C(C)CC[C@H]1C(C)(C)O2 [D9THCA, tetrahydrocannabinolic acid] | begins to noticeable degrade | 
2 | C=C(C)[C@@H]1CCC(C)=C[C@H]1c1c(O)cc(CCCCC)c(C(=O)O)c1O [CBDA, cannabidolic acid] |  | higher than D9THC
